Data reported in paper PMC5513037, “Examining the influence of specificity ligands and ATP-competitive ligands on the overall effectiveness of bivalent kinase inhibitors” (Proteome Science, 2017).

Legend:
Assay type in all cases: binding
ATM = ATM (Homo sapiens, UniProt Q13315); assay: KAM-matrix competition in K562 lysate; set-up: endogenous in cells; host or cells: K562;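 for 0.001 uM KAM: median log10 fold change of treatment over DMSO control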;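 for 0.01 uM KAM: median log10 fold change of treatment over DMSO control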;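 for 0.1 uM KAM: median log10 fold change of treatment over DMSO control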;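 for 1 uM KAM: median log10 fold change of treatment over DMSO control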;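 for 10 uM KAM: median log10 fold change of treatment over DMSO control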
Experimental: Supplement 12953_2017_125_MOESM1_ESM.zip/MS_Supp Info.xlsx, sheet "KAM" | column: 10 uM KAM; 1 uM KAM; 0.1 uM KAM; 0.01 uM KAM; 0.001 uM KAM; RB50

ALPK3 = target: T1, ALPK3 (Homo sapiens, UniProt Q96L96); assay: Imatinib-matrix competition in K562 lysate; details: read-out: RB50 (the source's name)
T1 construct: endogenous in cells; host or cells: K562
Description: (§1) Data were visualized for further analysis using Spotfire DXP.

ATR = target: T2, ATR (Homo sapiens, UniProt Q13535); assay: Imatinib-matrix competition in K562 lysate; details: read-out: RB50 (the source's name)
T2 construct: endogenous in cells; host or cells: K562
Description: as §1

BRD4 = target: T3, BRD4 (Homo sapiens, UniProt O60885); assay: Imatinib-matrix competition in K562 lysate; details: read-out: RB50 (the source's name)
T3 construct: endogenous in cells; host or cells: K562
Description: as §1

BUB1B = target: T4, BUB1B (Homo sapiens, UniProt O60566); assay: Imatinib-matrix competition in K562 lysate; details: read-out: RB50 (the source's name)
T4 construct: endogenous in cells; host or cells: K562
Description: as §1

CHD5 = target: T5, CHD5 (Homo sapiens, UniProt Q8TDI0); assay: Imatinib-matrix competition in K562 lysate; details: read-out: RB50 (the source's name)
T5 construct: endogenous in cells; host or cells: K562
Description: as §1

EEF2K = target: T6, EEF2K (Homo sapiens, UniProt O00418); assay: Imatinib-matrix competition in K562 lysate; details: read-out: RB50 (the source's name)
T6 construct: endogenous in cells; host or cells: K562 lysate
T6 sequence (O00418 1-725): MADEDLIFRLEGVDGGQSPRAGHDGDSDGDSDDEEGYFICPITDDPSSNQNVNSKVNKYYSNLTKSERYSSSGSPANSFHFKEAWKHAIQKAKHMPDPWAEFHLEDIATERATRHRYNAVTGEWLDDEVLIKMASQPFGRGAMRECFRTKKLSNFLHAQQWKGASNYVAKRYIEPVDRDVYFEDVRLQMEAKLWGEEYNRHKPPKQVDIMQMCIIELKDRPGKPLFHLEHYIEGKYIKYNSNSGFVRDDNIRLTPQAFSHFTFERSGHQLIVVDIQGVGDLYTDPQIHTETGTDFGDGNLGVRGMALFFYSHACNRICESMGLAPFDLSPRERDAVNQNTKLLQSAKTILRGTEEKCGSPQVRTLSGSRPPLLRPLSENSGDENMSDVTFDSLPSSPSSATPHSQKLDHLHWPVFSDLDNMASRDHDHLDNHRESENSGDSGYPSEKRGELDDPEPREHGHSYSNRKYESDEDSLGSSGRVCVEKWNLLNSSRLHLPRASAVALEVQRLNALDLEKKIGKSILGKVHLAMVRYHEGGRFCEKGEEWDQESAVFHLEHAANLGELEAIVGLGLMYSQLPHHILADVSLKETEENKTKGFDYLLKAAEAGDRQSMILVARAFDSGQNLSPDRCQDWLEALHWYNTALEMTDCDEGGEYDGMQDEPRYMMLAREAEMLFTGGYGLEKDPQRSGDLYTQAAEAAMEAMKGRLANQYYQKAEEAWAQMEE
Description: as §1

NRK = target: T7, NRK (Homo sapiens, UniProt Q7Z2Y5); assay: Imatinib-matrix competition in K562 lysate; details: read-out: RB50 (the source's name)
T7 construct: endogenous in cells; host or cells: K562
Description: as §1

PBK = target: T8, PBK (Homo sapiens, UniProt Q96KB5); assay: Imatinib-matrix competition in K562 lysate; details: read-out: RB50 (the source's name)
T8 construct: endogenous in cells; host or cells: K562
T8 sequence (Q96KB5 1-322): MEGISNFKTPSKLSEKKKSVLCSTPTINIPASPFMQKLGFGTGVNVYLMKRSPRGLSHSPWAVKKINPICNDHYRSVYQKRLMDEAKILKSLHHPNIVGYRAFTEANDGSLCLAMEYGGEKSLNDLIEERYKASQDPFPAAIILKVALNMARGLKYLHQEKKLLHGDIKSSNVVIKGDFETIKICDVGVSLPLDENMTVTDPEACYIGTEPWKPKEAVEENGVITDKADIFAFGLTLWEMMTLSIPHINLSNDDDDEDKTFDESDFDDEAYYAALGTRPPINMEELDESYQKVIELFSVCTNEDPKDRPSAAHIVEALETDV
Description: as §1

PRKDC = target: T9, PRKDC (Homo sapiens, UniProt P78527); assay: Imatinib-matrix competition in K562 lysate; details: read-out: RB50 (the source's name)
T9 construct: endogenous in cells; host or cells: K562
Description: as §1

RP1 = target: T10, RP1 (Homo sapiens, UniProt P56715); assay: Imatinib-matrix competition in K562 lysate; details: read-out: RB50 (the source's name)
T10 construct: endogenous in cells; host or cells: K562
Description: as §1

SMG1 = target: T11, SMG1 (Homo sapiens, UniProt Q96Q15); assay: Imatinib-matrix competition in K562 lysate; details: read-out: RB50 (the source's name)
T11 construct: endogenous in cells; host or cells: K562
Description: as §1

SPEG = target: T12, SPEG (Homo sapiens, UniProt Q15772); assay: Imatinib-matrix competition in K562 lysate; details: read-out: RB50 (the source's name)
T12 construct: endogenous in cells; host or cells: K562
Description: as §1

SRM = target: T13, SRM (Homo sapiens, UniProt P19623); assay: Imatinib-matrix competition in K562 lysate; details: read-out: RB50 (the source's name)
T13 construct: K562 lysate (5 mg per treatment) was preincubated; endogenous in cells; host or cells: K562 lysate
Description: as §1

TFG = target: T14, TFG (Homo sapiens, UniProt Q92734); assay: Imatinib-matrix competition in K562 lysate; details: read-out: RB50 (the source's name)
T14 construct: endogenous in cells; host or cells: K562
Description: as §1

TKT = target: T15, TKT (Homo sapiens, UniProt P29401); assay: Imatinib-matrix competition in K562 lysate; details: read-out: RB50 (the source's name)
T15 construct: endogenous in cells; host or cells: K562
Description: as §1

TRIM28 = target: T16, TRIM28 (Homo sapiens, UniProt Q13263); assay: Imatinib-matrix competition in K562 lysate; details: read-out: RB50 (the source's name)
T16 construct: endogenous in cells; host or cells: K562
Description: as §1

TRIM33 = target: T17, TRIM33 (Homo sapiens, UniProt Q9UPN9); assay: Imatinib-matrix competition in K562 lysate; details: read-out: RB50 (the source's name)
T17 construct: endogenous in cells; host or cells: K562
Description: as §1

VRK1 = target: T18, VRK1 (Homo sapiens, UniProt Q99986); assay: Imatinib-matrix competition in K562 lysate; details: read-out: RB50 (the source's name)
T18 construct: endogenous in cells; host or cells: K562
T18 sequence (Q99986 1-396): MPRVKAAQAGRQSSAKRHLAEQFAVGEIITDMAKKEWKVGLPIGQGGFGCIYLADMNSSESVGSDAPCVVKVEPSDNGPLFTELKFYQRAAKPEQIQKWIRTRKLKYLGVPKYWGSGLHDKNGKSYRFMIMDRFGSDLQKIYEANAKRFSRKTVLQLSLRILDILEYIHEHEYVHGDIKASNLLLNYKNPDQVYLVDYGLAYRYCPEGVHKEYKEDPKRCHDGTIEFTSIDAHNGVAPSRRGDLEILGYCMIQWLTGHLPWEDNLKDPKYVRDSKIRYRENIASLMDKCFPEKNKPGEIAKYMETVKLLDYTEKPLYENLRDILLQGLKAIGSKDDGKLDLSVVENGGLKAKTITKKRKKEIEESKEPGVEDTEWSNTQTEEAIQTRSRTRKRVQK
Description: as §1

Sequence of ATM (Q13315 whole entry): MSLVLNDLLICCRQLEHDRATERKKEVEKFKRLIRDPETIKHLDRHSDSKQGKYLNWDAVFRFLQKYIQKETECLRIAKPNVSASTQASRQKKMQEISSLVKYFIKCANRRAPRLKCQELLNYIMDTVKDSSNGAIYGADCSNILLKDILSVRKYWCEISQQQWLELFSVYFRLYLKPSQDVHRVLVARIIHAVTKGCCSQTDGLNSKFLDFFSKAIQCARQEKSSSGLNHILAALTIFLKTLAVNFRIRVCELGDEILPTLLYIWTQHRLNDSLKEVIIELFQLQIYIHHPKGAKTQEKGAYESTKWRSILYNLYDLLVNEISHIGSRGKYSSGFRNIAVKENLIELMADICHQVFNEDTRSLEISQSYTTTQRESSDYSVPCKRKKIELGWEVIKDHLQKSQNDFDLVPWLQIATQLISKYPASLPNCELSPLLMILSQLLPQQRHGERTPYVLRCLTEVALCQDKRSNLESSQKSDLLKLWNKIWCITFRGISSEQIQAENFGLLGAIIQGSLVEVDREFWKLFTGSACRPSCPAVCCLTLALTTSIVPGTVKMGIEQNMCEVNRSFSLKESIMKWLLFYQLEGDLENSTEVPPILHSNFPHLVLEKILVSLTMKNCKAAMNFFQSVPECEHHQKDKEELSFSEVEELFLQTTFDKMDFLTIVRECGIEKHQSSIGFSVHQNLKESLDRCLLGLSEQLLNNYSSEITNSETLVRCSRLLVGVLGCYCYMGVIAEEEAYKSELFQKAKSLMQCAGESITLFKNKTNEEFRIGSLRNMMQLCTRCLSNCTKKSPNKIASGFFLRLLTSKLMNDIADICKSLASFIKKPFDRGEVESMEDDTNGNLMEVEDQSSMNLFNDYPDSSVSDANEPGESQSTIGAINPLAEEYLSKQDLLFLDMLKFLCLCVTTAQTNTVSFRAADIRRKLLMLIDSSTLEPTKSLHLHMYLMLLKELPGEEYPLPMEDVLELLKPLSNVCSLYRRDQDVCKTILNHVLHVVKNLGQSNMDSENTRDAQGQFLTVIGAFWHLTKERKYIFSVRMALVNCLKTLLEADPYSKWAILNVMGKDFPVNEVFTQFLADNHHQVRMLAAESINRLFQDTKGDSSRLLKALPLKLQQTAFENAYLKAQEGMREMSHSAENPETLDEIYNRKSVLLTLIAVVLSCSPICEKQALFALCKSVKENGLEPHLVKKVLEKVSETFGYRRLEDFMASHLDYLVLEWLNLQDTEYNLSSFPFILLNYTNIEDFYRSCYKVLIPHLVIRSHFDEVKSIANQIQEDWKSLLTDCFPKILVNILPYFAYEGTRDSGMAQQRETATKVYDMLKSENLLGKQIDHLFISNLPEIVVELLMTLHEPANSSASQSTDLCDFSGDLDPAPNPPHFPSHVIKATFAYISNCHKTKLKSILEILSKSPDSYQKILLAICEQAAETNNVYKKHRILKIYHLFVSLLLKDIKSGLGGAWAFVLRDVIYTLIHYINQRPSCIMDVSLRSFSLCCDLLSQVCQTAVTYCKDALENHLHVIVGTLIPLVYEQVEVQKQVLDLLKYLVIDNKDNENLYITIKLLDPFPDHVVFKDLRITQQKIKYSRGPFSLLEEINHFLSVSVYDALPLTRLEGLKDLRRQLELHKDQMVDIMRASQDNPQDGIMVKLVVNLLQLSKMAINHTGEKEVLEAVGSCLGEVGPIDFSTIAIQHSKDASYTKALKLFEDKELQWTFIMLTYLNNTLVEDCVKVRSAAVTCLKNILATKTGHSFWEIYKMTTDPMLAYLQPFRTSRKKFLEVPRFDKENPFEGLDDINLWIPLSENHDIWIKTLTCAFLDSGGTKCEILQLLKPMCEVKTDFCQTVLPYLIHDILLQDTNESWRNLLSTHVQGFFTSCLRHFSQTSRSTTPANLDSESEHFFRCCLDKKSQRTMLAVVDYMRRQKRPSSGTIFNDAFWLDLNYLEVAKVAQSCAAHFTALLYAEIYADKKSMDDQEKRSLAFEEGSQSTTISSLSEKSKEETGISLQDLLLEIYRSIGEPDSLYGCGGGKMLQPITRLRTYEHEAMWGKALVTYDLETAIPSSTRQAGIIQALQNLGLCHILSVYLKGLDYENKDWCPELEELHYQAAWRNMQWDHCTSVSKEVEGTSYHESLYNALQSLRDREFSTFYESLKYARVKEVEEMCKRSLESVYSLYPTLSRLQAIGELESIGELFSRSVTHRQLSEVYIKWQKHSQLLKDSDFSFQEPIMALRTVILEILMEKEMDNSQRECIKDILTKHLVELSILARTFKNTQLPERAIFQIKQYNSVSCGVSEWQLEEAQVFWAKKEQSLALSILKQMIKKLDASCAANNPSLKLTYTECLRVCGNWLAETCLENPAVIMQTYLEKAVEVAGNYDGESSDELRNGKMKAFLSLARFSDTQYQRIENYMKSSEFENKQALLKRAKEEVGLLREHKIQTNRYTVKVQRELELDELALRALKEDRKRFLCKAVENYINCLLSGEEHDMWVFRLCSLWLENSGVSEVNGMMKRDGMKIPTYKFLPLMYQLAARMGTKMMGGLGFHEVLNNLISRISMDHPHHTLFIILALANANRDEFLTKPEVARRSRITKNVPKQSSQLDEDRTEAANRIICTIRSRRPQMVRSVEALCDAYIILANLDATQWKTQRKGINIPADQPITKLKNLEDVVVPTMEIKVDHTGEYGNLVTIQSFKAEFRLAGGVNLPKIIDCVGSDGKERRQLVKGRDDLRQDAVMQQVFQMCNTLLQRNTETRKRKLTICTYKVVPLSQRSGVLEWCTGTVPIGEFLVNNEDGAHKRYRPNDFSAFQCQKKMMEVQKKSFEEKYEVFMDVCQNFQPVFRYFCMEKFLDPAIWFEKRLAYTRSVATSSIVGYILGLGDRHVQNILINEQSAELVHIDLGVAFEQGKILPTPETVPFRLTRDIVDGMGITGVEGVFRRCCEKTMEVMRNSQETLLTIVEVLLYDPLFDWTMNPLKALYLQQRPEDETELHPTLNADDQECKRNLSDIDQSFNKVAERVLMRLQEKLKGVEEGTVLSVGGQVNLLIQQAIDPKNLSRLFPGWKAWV
T13 sequence (P19623 whole entry): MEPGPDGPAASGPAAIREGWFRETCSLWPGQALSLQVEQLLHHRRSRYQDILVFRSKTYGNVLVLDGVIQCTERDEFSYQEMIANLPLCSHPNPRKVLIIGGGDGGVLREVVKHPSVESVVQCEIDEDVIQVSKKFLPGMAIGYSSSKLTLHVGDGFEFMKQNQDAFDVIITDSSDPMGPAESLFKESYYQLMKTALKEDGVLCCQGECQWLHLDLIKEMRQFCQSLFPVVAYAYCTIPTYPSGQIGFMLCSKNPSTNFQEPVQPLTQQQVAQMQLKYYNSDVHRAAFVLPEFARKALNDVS
T4 sequence (O60566 whole entry): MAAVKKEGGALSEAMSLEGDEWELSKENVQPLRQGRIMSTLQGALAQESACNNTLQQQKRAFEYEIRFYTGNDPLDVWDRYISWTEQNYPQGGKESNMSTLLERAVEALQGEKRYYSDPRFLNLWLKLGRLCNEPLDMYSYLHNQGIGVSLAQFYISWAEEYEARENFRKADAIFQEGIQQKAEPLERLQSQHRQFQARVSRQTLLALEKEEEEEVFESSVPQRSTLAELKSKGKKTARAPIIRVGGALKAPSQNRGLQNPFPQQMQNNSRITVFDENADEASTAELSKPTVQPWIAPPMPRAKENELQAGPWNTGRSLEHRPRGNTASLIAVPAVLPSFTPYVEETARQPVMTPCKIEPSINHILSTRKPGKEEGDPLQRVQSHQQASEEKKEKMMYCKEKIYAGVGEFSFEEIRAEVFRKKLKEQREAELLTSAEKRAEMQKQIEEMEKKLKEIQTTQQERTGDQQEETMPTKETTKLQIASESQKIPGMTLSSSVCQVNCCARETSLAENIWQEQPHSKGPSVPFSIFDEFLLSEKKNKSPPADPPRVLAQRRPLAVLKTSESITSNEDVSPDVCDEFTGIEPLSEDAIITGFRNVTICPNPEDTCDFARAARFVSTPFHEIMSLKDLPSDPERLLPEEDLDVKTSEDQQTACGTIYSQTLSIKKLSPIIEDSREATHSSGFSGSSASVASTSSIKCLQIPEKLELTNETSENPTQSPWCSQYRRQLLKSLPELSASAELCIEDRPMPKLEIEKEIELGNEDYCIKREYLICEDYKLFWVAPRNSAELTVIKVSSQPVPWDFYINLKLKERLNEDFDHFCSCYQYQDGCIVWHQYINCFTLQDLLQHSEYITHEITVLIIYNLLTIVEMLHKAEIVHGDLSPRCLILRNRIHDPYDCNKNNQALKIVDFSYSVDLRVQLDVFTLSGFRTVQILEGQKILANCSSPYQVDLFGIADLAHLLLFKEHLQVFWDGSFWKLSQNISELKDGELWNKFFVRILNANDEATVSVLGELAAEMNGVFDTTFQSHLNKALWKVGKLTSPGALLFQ
T14 sequence (Q92734 whole entry): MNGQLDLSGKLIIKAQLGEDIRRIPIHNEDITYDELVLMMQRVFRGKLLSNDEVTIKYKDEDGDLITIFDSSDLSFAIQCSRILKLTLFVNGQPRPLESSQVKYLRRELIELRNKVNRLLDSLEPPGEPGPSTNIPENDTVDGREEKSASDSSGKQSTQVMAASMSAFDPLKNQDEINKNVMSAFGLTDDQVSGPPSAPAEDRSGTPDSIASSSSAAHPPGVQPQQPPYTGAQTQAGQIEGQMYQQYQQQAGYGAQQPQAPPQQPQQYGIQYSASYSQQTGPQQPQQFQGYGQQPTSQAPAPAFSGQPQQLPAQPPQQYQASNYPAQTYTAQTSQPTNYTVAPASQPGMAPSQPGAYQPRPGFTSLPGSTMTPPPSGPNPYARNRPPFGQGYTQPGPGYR

SMILES: N#CCc1ccc(Nc2nc(NCCCN)cc(Nc3cc(C4CC4)[nH]n3)n2)cc1 [KAM]
- IC50 (ATM; KAM 0.001-10 uM, read-out: RB50 (the source's name)): > 10 µM
- 0.001 uM KAM (ATM; relative to 0 uM KAM = 0): -0.06745
- 0.01 uM KAM (ATM; relative to 0 uM KAM = 0): -0.02165
- 0.1 uM KAM (ATM; relative to 0 uM KAM = 0): -0.03764
- 1 uM KAM (ATM; relative to 0 uM KAM = 0): -0.07001
- 10 uM KAM (ATM; relative to 0 uM KAM = 0): 0.01755

SMILES: Cc1ccc(NC(=O)c2ccc(CN3CCN(C)CC3)cc2)cc1Nc1nccc(-c2cccnc2)n1 [Imatinib]
- IC50 (ALPK3): > 10 µM
- IC50 (ATR): > 10 µM
- IC50 (BRD4): > 10 µM
- IC50 (BUB1B): > 10 µM
- IC50 (CHD5): > 10 µM
- IC50 (EEF2K): > 10 µM
- IC50 (NRK): > 10 µM
- IC50 (PBK): > 10 µM
- IC50 (PRKDC): > 10 µM
- IC50 (RP1): > 10 µM
- IC50 (SMG1): > 10 µM
- IC50 (SPEG): > 10 µM
- IC50 (SRM): > 10 µM
- IC50 (TFG): > 10 µM
- IC50 (TKT): > 10 µM
- IC50 (TRIM28): > 10 µM
- IC50 (TRIM33): > 10 µM
- IC50 (VRK1): > 10 µM
